Patent US20160187553A1, “METHOD OF MANUFACTURING POLARIZING PLATE, POLARIZING PLATE MANUFACTURED USING THE METHOD, AND LIQUID CRYSTAL DISPLAY DEVICE” (Konica Minolta, Inc., priority 2010, published 2016)
Read-outs that look alike come from different tables or passages of the source.

Columns and labels:
[1] = logP of additives A and B of the protective films
[2] = reference liquid; cited from earlier work

Row | SMILES | logP [1] | γLd [2] [mN/m] | γLh [2] [mN/m] | γLp [2] [mN/m] | logP ([1]; additive of protective film)
1 | CCC(COC(=O)c1ccccc1)(COC(=O)c1ccccc1)COC(=O)c1ccccc1 [Compound 16] | 7.9 |  |  |  | 
2 | O [water] |  | 30.4 | 42.4 | 0.0 | 
3 | O=C(OCC(COC(=O)c1ccccc1)(COC(=O)c1ccccc1)COC(=O)c1ccccc1)c1ccccc1 [PETB, pentaerythritol-tetrabenzoate] | 9.9 |  |  |  | 
4 | CCOC(=O)COC(=O)c1ccccc1C(=O)OCC [EPEG, Ethylphthalyl ethylglycolate] | 2.3 |  |  |  | 
5 | ICI [diiodomethane] |  | 51.0 | 0.0 | 0.0 | 
6 | C[N+](=O)[O-] [nitromethane] |  | 18.3 | 0.0 | 17.7 | 
7 | O=P(Oc1ccccc1)(Oc1ccccc1)Oc1ccccc1 [TPP, Triphenyl phosphate] | 5.6 |  |  |  | 
8 | O=P(Oc1ccccc1)(Oc1ccccc1)Oc1ccccc1-c1ccccc1 [BDP, Biphenyldiphenyl phosphate] |  |  |  |  | 7.3
